Measured values: ChEMBL document CHEMBL4420076, “Amylin and calcitonin receptor agonist” (2017)
Numbered stars: 1 amine (or outer) side, 2 acyl side, 3 side chain; on linkers, the order of the positions; unused ones are H or OH. Peptide text beside a SMILES is read from it. * marks the point of attachment. C20 diacid = O=C(O)CCCCCCCCCCCCCCCCCCC(=O)*; γGlu = O=C(O)[C@H](CCC(=O)[*:2])N[*:1]; AEEA = NCCOCCOCC(=O)O

How the values were obtained:
Calcitonin receptor [1] = target: T1, Calcitonin receptor (Homo sapiens, UniProt P30988); experiment: Agonist activity at human calcitonin receptor expressed in BHK570 cells assessed as increase in intracellular cAMP concentration incubated for 3 hrs in absence of albumin by CRE luciferase reporter gene assay; format: functional, cell-based
T1 sequence (P30988 whole entry): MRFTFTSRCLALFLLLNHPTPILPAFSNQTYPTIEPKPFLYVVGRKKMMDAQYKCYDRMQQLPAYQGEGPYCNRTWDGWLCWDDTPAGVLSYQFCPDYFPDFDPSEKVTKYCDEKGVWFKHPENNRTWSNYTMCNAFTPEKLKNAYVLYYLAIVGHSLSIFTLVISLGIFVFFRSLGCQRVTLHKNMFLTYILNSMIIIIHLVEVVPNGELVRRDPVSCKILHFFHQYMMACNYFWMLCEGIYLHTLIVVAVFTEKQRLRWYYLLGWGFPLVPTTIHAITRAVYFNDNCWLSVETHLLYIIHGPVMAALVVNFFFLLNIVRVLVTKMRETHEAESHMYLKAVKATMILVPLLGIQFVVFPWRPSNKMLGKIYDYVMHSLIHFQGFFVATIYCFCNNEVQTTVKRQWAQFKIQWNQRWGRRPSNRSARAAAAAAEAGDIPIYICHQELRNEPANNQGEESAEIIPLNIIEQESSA

[2] = target: T2, Amylin receptor AMY3; CALCR/RAMP3 (Homo sapiens, UniProt O60896+P30988); experiment: Agonist activity at human amylin receptor expressed in BHK570 cells co-expressing RAMP3 assessed as increase in intracellular cAMP concentration incubated for 3 hrs in presence of 10% FBS by CRE luciferase reporter gene assay; format: functional, cell-based
T2 sequence (P30988 whole entry): T1 sequence (P30988 whole entry)
T2 sequence (O60896 whole entry): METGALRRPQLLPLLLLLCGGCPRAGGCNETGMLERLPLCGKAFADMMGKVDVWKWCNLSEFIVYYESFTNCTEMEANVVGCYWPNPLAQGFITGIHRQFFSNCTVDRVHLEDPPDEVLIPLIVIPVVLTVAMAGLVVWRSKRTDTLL

Calcitonin receptor [3] = target: T1, Calcitonin receptor; experiment: Agonist activity at human calcitonin receptor expressed in BHK570 cells assessed as increase in intracellular cAMP concentration incubated for 3 hrs in presence of 10% FBS by CRE luciferase reporter gene assay; format: functional, cell-based
[4] = Stability in pH 7.5 buffer assessed as lag time for fibril formation at 1 uM by Thioflavin T based fluorescence assay; format: physicochemical; details: pH 7.5, 1 µM
[5] = Stability in pH 7.5 buffer assessed as compound recovery at 1 uM by Thioflavin T based fluorescence assay; format: physicochemical; details: read-out: Drug recovery
[6] = Solubility in 100 mM glycylglycine buffer at pH 3.0 incubated for 18 hrs by UPLC analysis; format: physicochemical
[7] = Solubility in 100 mM glycylglycine buffer at pH 4.0 incubated for 18 hrs by UPLC analysis; format: physicochemical
[8] = Solubility in 100 mM bistrispropane buffer at pH 6.0 incubated for 18 hrs by UPLC analysis; format: physicochemical
[9] = Solubility in 100 mM glycylglycine buffer at pH 5.0 incubated for 18 hrs by UPLC analysis; format: physicochemical
[10] = Solubility in 100 mM bistrispropane buffer at pH 6.5 incubated for 18 hrs by UPLC analysis; format: physicochemical
[11] = Solubility in 100 mM bistrispropane buffer at pH 7.0 incubated for 18 hrs by UPLC analysis; format: physicochemical
[12] = Solubility in 100 mM bistrispropane buffer at pH 7.5 incubated for 18 hrs by UPLC analysis; format: physicochemical
[13] = Solubility in 100 mM bistrispropane buffer at pH 8.0 incubated for 18 hrs by UPLC analysis; format: physicochemical
[14] = target: T2, Amylin receptor AMY3; CALCR/RAMP3; experiment: Agonist activity at human amylin receptor expressed in BHK570 cells co-expressing RAMP3 assessed as increase in intracellular cAMP concentration incubated for 3 hrs in absence of albumin by CRE luciferase reporter gene assay; format: functional, cell-based
[15] = target: T2, Amylin receptor AMY3; CALCR/RAMP3; experiment: Displacement of [125I]-labeled rat amylin from human amylin receptor expressed in BHK tkts13 whole cells co-expressing RAMP3 incubated for 60 mins by scintillation proximity assay; format: cell-based

Compound	EC50 (Calcitonin receptor [1]) [nM]	EC50 [2] [nM]	EC50 (Calcitonin receptor [3]) [nM]	Time [4] [h]	remaining at 1 µM [5] [%]	solubility at 18 h [6] [µM]	solubility at 18 h [7] [µM]	solubility at 18 h [8] [µM]	solubility at 18 h [9] [µM]	solubility at 18 h [10] [µM]	solubility at 18 h [11] [µM]	solubility at 18 h [12] [µM]	solubility at 18 h [13] [µM]	EC50 [14] [nM]	IC50 [15] [nM]
CC(C)C[C@H](NC(=O)[C@H](C)NC(=O)[C@H](C)NC(=O)[C@@H](NC(=O)[C@H](CO)NC(=O)[C@H](CC(C)C)NC(=O)[C@H](CCC(=O)O)NC(=O)[C@H](CO)NC(=O)[C@H](C)NC(=O)COCCOCCNC(=O)COCCOCCNC(=O)COCCOCCNC(=O)COCCOCCNC(=O)CC[C@H](NC(=O)CCCCCCCCCCCCCCCCCCC(=O)O)C(=O)O)[C@@H](C)O)C(=O)NCC(=O)N[C@@H](CCCNC(=N)N)C(=O)N[C@@H](CC(C)C)C(=O)N[C@@H](CO)C(=O)N[C@@H](C)C(=O)N[C@@H](CCC(=O)O)C(=O)N[C@@H](CC(C)C)C(=O)N[C@@H](Cc1cnc[nH]1)C(=O)N[C@@H](CCC(=O)O)C(=O)N[C@@H](CC(C)C)C(=O)N[C@@H](C)C(=O)N[C@H](C(=O)N[C@@H](CC(C)C)C(=O)N1CCC[C@H]1C(=O)N[C@@H](CCCNC(=N)N)C(=O)N[C@H](C(=O)N[C@@H](CCC(=O)O)C(=O)N[C@H](C(=O)NCC(=O)N[C@@H](CO)C(=O)NCC(=O)N[C@@H](CO)C(=O)N1CCC[C@H]1C(N)=O)[C@@H](C)O)[C@@H](C)O)[C@@H](C)O ({C20 diacid-γGlu-AEEA-AEEA-AEEA-AEEA}-ASELSTAALGRLSAELHELATLPRTETGSGSP-NH2)	0.013	0.062	0.025	> 45	100	≥ 200	≥ 200	≥ 200	≥ 200	≥ 200	≥ 200	≥ 200	≥ 200	–	–
CC(C)C[C@H](NC(=O)[C@H](C)NC(=O)[C@H](C)NC(=O)[C@@H](NC(=O)[C@H](CO)NC(=O)[C@H](CC(C)C)NC(=O)[C@H](CCC(=O)O)NC(=O)[C@H](CO)NC(=O)[C@H](C)NC(=O)CC[C@H](NC(=O)CCCCCCCCCCCCCCCCCCC(=O)O)C(=O)O)[C@@H](C)O)C(=O)NCC(=O)N[C@@H](CCCNC(=N)N)C(=O)N[C@@H](CC(C)C)C(=O)N[C@@H](CO)C(=O)N[C@@H](C)C(=O)N[C@@H](CCC(=O)O)C(=O)N[C@@H](CC(C)C)C(=O)N[C@@H](Cc1cnc[nH]1)C(=O)N[C@@H](CCC(=O)O)C(=O)N[C@@H](CC(C)C)C(=O)N[C@@H](C)C(=O)N[C@H](C(=O)N[C@@H](CC(C)C)C(=O)N1CCC[C@H]1C(=O)N[C@@H](CCCNC(=N)N)C(=O)N[C@H](C(=O)N[C@@H](CCC(=O)O)C(=O)N[C@H](C(=O)NCC(=O)N[C@@H](CO)C(=O)NCC(=O)N[C@@H](CO)C(=O)N[C@@H](C)C(N)=O)[C@@H](C)O)[C@@H](C)O)[C@@H](C)O ({C20 diacid-γGlu}-ASELSTAALGRLSAELHELATLPRTETGSGSA-NH2)	0.04	–	0.102	> 45	100	≥ 200	≥ 200	≥ 200	≥ 200	≥ 200	≥ 200	≥ 200	≥ 200	0.067	1.89
